Data as given in patent US8962844B2, “1,3,4-oxadiazole and 1,3,4-thiadiazole β-lactamase inhibitors” (priority 2012, dated 2015).
Structures can show the parent of a compound that is named as a salt.

Tests used:
[1] = test system: bacterial strains that express the class D cephalosporinase OXA-15; assay: Standard BLI potentiation MIC / synergy MIC (sMIC) assays run in the presence of a β-lactam, OXA-15 expressing strains; format: cell-based, E. coli; settings: BLI in combination with a β-lactam; comparison with Avibactam (comparator compound CCC)
Source text: (§1) Unless otherwise indicated, the activity of the BLI compounds can be described by the MIC value obtained from a Synergy MIC assay or a BLI potentiation assay (e.g as described herein), both of which are run in the presence of a β-lactam.
(§2) A set of β-lactamase expressing isogenic E. coli strains was constructed by cloning a β-lactamase gene into a customized derivative of pBR322 (GenBank Accession Number J01749) and transforming the engineered plasmids into E. coli. The NdeI restriction site within the plasmid backbone of pBR322 was removed to generate pBR322 ΔNdeI. The pBR322 ΔNdeI vector itself, minus the blaTEM-1 gene, was amplified using two primers: (1) pBR-Pbla 5′-cgcatatgactettectttttcaatattattg-3, SEQ ID 1, a primer with an engineered NdeI restriction site at the 3′ end of the blaTEM-1 promoter and (2) pBR-vec-1 5′-[…]-3′, SEQ ID 2, a primer with an engineered BamHI restriction site at the 3′ end of the blaTEM-1 open reading frame. The chloramphenicol resistance gene, cat, was generated by PCR amplification from pKD3 (GenBank Accession Number AY048742) using primers with an engineered NdeI restriction site at the 5′ end (Pbla-cat 5′-[…]-3′, SEQ ID 3) and an engineered BamHI restriction site at the 3′ end (Vec-1-cat 5′-[…]-3′, SEQ ID 4) of the resistance gene. The two PCR products, pBR322 ΔNdeI and cat were ligated together generating pBR-CBST (pBR322 ΔNdeI ΔTEM-1::cat Seq. ID 5) which retains both the pBR322 tetracycline resistance cassette, tetA, and the plasmid origin of replication but the blaTEM-1 gene was replaced by the cat gene.
(§3) Using this engineering strategy a number of plasmids producing β-lactamase genes from different classes (see below) were generated using synthetic genes with an engineered NdeI restriction site at the 5′ end and BamHI restriction site at the 3′ end of each gene (GenScript). Both the synthetic β-lactamase genes and cat gene were ligated into the NdeI/BamHI sites of the pBR322 ΔNdeI PCR product and transformed into electrocompetent E. coli ElectroMax DH10B (Invitrogen/Life Technologies). E. coli DH10B harboring the recombinant plasmids were selected on LB agar (supplemented with 25 μg/mL tetracycline) and single isolated colonies were then inoculated into 5 mL LB media (supplemented with 25 μg/mL tetracycline), and incubated at 37° C. with aeration (250 rpm) for 18 hrs. The cultures were frozen back at −80° C. in 20% glycerol. The DNA sequence of the cloned β-lactamase genes was confirmed. The β-lactamase gene expression in the recombinant E. coli strains was driven by the blaTEM-1 promoter in the pBR-CBST plasmid and was characterized by MIC profiling of the E. coli recombinant strains against comparator β-lactam/BLI combinations in broth microdilution assay.
(§4) The experimental protocol was performed according to Clinical and Laboratory Standards Institute (CLSI) guidelines with modifications as described below (CLSI guidelines can be derived from the CLSI document M07-A9 published in January 2012: “Methods for Dilution Antimicrobial Susceptibility Tests for Bacteria That Grow Aerobically; Approved Standard-Ninth Edition”).
(§5) To prepare for MIC testing, frozen glycerol stocks of clinical isolates (Klebsiella pneumoniae, Eschericia coli, Enterobacter spp, Citrobacter spp, or Pseudomonas aeruginosa) were used to streak for isolated colonies on rich, non-selective, tryptic soy agar containing 5% sheep's blood (TSAB). Frozen glycerol stocks of laboratory engineered, isogenic E. coli strains, which contain cloned β-lactamase expressing plasmids were used to streak for isolated colonies on rich, selective LB agar supplemented with 25 μg/mL tetracycline to maintain the plasmid. All strains were incubated at 37° C. for 18-24 hrs.
(§6) On the day of testing, primary cultures were started by scraping off 5-10 colonies from the TSAB plates containing clinical strains or the tetracycline supplemented LB plates containing engineered strains. […]

[2] = test system: bacterial strains that express KPC β-lactamases; assay: Standard BLI potentiation MIC / synergy MIC (sMIC) assays run in the presence of a β-lactam, KPC expressing strains; format: cell-based; settings: more active for at least one KPC strain and/or better spectrum of activity than Avibactam; BLI in combination with a β-lactam
Source text: as §1, §2, §3, §4, §5, §6

SMILES: O=C1N2C[C@@H](CC[C@H]2c2nnc(CN[C@H]3CCNC3)o2)N1OS(=O)(=O)O [Compound 765, (2S,5R)-7-oxo-2-(5-(((S)-pyrrolidin-3-ylamino)methyl)-1,3,4-oxadiazol-2-yl)-1,6-diazabicyclo[3.2.1]octan-6-yl hydrogen sulfate]
- activity against bacterial strains that express the class D cephalosporinase OXA-15, compared with Avibactam [1]: more active than Avibactam
- activity and/or spectrum of activity against bacterial strains that express KPC β-lactamases, compared with Avibactam [2]: more active than Avibactam

SMILES: O=C1N2C[C@@H](CC[C@H]2c2nnc(CN[C@@H]3CCNC3)o2)N1OS(=O)(=O)O [Compound 766, (2S,5R)-7-oxo-2-(5-(((R)-pyrrolidin-3-ylamino)methyl)-1,3,4-oxadiazol-2-yl)-1,6-diazabicyclo[3.2.1]octan-6-yl hydrogen sulfate]
- activity against bacterial strains that express the class D cephalosporinase OXA-15, compared with Avibactam [1]: more active than Avibactam
- activity and/or spectrum of activity against bacterial strains that express KPC β-lactamases, compared with Avibactam [2]: more active than Avibactam

SMILES: N=C(N)NC[C@H](O)c1nnc([C@@H]2CC[C@@H]3CN2C(=O)N3OS(=O)(=O)O)o1 [Compound 732, (2S,5R)-2-(5-((S)-2-guanidino-1-hydroxyethyl)-1,3,4-oxadiazol-2-yl)-7-oxo-1,6-diazabicyclo[3.2.1]octan-6-yl hydrogen sulfate]
- activity against bacterial strains that express the class D cephalosporinase OXA-15, compared with Avibactam [1]: more active than Avibactam
- activity and/or spectrum of activity against bacterial strains that express KPC β-lactamases, compared with Avibactam [2]: more active than Avibactam

SMILES: N[C@H]1C[C@H](c2nnc([C@@H]3CC[C@@H]4CN3C(=O)N4OS(=O)(=O)O)o2)C1 [Compound 727, (2S,5R)-2-(5-((1r,3S)-3-aminocyclobutyl)-1,3,4-oxadiazol-2-yl)-7-oxo-1,6-diazabicyclo[3.2.1]octan-6-yl hydrogen sulfate]
- activity against bacterial strains that express the class D cephalosporinase OXA-15, compared with Avibactam [1]: more active than Avibactam
- activity and/or spectrum of activity against bacterial strains that express KPC β-lactamases, compared with Avibactam [2]: more active than Avibactam

SMILES: O=C1N2C[C@@H](CC[C@H]2c2nnc(CN3CCNCC3)o2)N1OS(=O)(=O)O [Compound 777, (2S,5R)-7-oxo-2-(5-(piperazin-1-ylmethyl)-1,3,4-oxadiazol-2-yl)-1,6-diazabicyclo[3.2.1]octan-6-yl hydrogen sulfate]
- activity against bacterial strains that express the class D cephalosporinase OXA-15, compared with Avibactam [1]: more active than Avibactam
- activity and/or spectrum of activity against bacterial strains that express KPC β-lactamases, compared with Avibactam [2]: more active than Avibactam

SMILES: N=C(N)NC1CC(Cc2nnc([C@@H]3CC[C@@H]4CN3C(=O)N4OS(=O)(=O)O)o2)C1 (stereo partly drawn) [Compound 752, (2S,5R)-2-(5-((3-guanidinocyclobutyl)methyl)-1,3,4-oxadiazol-2-yl)-7-oxo-1,6-diazabicyclo[3.2.1]octan-6-yl hydrogen sulfate]
- activity against bacterial strains that express the class D cephalosporinase OXA-15, compared with Avibactam [1]: more active than Avibactam
- activity and/or spectrum of activity against bacterial strains that express KPC β-lactamases, compared with Avibactam [2]: more active than Avibactam

SMILES: NCc1nnc([C@@H]2CC[C@@H]3CN2C(=O)N3OS(=O)(=O)O)o1 [Compound 702, (2S,5R)-2-(5-(aminomethyl)-1,3,4-oxadiazol-2-yl)-7-oxo-1,6-diazabicyclo[3.2.1]octan-6-yl hydrogen sulfate]
- activity against bacterial strains that express the class D cephalosporinase OXA-15, compared with Avibactam [1]: more active than Avibactam
- activity and/or spectrum of activity against bacterial strains that express KPC β-lactamases, compared with Avibactam [2]: more active than Avibactam

SMILES: N=C(N)N[C@H]1C[C@@H](c2nnc([C@@H]3CC[C@@H]4CN3C(=O)N4OS(=O)(=O)O)s2)C1 [Compound 784, (2S,5R)-2-(5-((1s,3R)-3-guanidinocyclobutyl)-1,3,4-thiadiazol-2-yl)-7-oxo-1,6-diazabicyclo[3.2.1]octan-6-yl hydrogen sulfate]
- activity against bacterial strains that express the class D cephalosporinase OXA-15, compared with Avibactam [1]: more active than Avibactam
- activity and/or spectrum of activity against bacterial strains that express KPC β-lactamases, compared with Avibactam [2]: more active than Avibactam

SMILES: O=C1N2C[C@@H](CC[C@H]2c2nnc([C@H]3[C@@H]4CNC[C@@H]43)o2)N1OS(=O)(=O)O [Compound 740, (2S,5R)-2-(5-(3-azabicyclo[3.1.0]hexan-6-yl)-1,3,4-oxadiazol-2-yl)-7-oxo-1,6-diazabicyclo[3.2.1]octan-6-yl hydrogen sulfate]
- activity against bacterial strains that express the class D cephalosporinase OXA-15, compared with Avibactam [1]: more active than Avibactam
- activity and/or spectrum of activity against bacterial strains that express KPC β-lactamases, compared with Avibactam [2]: more active than Avibactam

SMILES: N=C(N)N1CC(c2nnc([C@@H]3CC[C@@H]4CN3C(=O)N4OS(=O)(=O)O)o2)C1 [Compound 709, (2S,5R)-2-(5-(1-carbamimidoylazetidin-3-yl)-1,3,4-oxadiazol-2-yl)-7-oxo-1,6-diazabicyclo[3.2.1]octan-6-yl hydrogen sulfate]
- activity against bacterial strains that express the class D cephalosporinase OXA-15, compared with Avibactam [1]: more active than Avibactam
- activity and/or spectrum of activity against bacterial strains that express KPC β-lactamases, compared with Avibactam [2]: more active than Avibactam

SMILES: O=C1N2C[C@@H](CC[C@H]2c2nnc(CCCCNC3CCNCC3)o2)N1OS(=O)(=O)O [Compound 772, (2S,5R)-7-oxo-2-(5-(4-(piperidin-4-ylamino)butyl)-1,3,4-oxadiazol-2-yl)-1,6-diazabicyclo[3.2.1]octan-6-yl hydrogen sulfate]
- activity against bacterial strains that express the class D cephalosporinase OXA-15, compared with Avibactam [1]: more active than Avibactam
- activity and/or spectrum of activity against bacterial strains that express KPC β-lactamases, compared with Avibactam [2]: more active than Avibactam

SMILES: NC1CC(NCc2nnc([C@@H]3CC[C@@H]4CN3C(=O)N4OS(=O)(=O)O)o2)C1 (stereo partly drawn) [Compound 755, (2S,5R)-2-(5-(((3-aminocyclobutyl)amino)methyl)-1,3,4-oxadiazol-2-yl)-7-oxo-1,6-diazabicyclo[3.2.1]octan-6-yl hydrogen sulfate]
- activity against bacterial strains that express the class D cephalosporinase OXA-15, compared with Avibactam [1]: more active than Avibactam
- activity and/or spectrum of activity against bacterial strains that express KPC β-lactamases, compared with Avibactam [2]: more active than Avibactam

SMILES: NC(=O)c1nnc([C@@H]2CC[C@@H]3CN2C(=O)N3OS(=O)(=O)O)o1 [Compound 706, (2S,5R)-2-(5-carbamoyl-1,3,4-oxadiazol-2-yl)-7-oxo-1,6-diaza-bicyclo[3.2.1]octan-6-yl hydrogen sulfate]
- activity against bacterial strains that express the class D cephalosporinase OXA-15, compared with Avibactam [1]: more active than Avibactam
- activity and/or spectrum of activity against bacterial strains that express KPC β-lactamases, compared with Avibactam [2]: more active than Avibactam

SMILES: O=C1N2C[C@@H](CC[C@H]2c2nnc([C@H]3CCNC3)o2)N1OS(=O)(=O)O [Compound 758, (2S,5R)-7-oxo-2-(5-((S)-pyrrolidin-3-yl)-1,3,4-oxadiazol-2-yl)-1,6-diazabicyclo[3.2.1]octan-6-yl hydrogen sulfate]
- activity against bacterial strains that express the class D cephalosporinase OXA-15, compared with Avibactam [1]: more active than Avibactam
- activity and/or spectrum of activity against bacterial strains that express KPC β-lactamases, compared with Avibactam [2]: more active than Avibactam

SMILES: O=C1N2C[C@@H](CC[C@H]2c2nnc([C@@H]3CCNC3)o2)N1OS(=O)(=O)O [Compound 759, (2S,5R)-7-oxo-2-(5-((R)-pyrrolidin-3-yl)-1,3,4-oxadiazol-2-yl)-1,6-diazabicyclo[3.2.1]octan-6-yl hydrogen sulfate]
- activity against bacterial strains that express the class D cephalosporinase OXA-15, compared with Avibactam [1]: more active than Avibactam
- activity and/or spectrum of activity against bacterial strains that express KPC β-lactamases, compared with Avibactam [2]: more active than Avibactam
